Earlier results on 14 compounds are cited in patent US20060193824A1, “Methods for the treatment of infectious and inflammatory airway diseases” (priority 2005, published 2006).

In series [1] the test system is normal pancreatic cell lines. The conditions noted are these: extracellular ATP.
The subject of series [2] is human airways.
Series [3] has as its system human airways. This is another data set of the same source.
The subject of series [4] is respiratory epithelial cells.

Take `Nc1ncnc2c1ncn2[C@@H]1O[C@H](COP(=O)(O)OP(=O)(O)OP(=O)(O)O)[C@@H](O)[C@H]1O` [ATP]: the mucin protein secretion entry in [1] was “rapidly increased mucin protein secretion”.
For `CCCCC/C=C\C/C=C\C/C=C\C/C=C\CCCC(=O)O` [Arachidonic acid], in the series on human airways [2], the mucin release entry is given as “release mucin from human airways”.
Consider `NCCc1c[nH]cn1` [Histamine], for which the mucous glycoprotein release entry with human airways [3] is listed as “stimulates mucous glycoprotein release”.
`CC(=O)N[C@H]1C(O)O[C@H](CO)[C@@H](O)[C@@H]1O` (some centres unmarked) [N-acetyl-glucosamine]: the mucin release result with GI tract is “stimulate mucin release in the GI tract”.
For `O=C(O)CNC(=O)C(CS)Cc1ccccc1` (centres unmarked) [Thiorphan], in the series on mucin release, the mucin release result is on record as “stimulate mucin release”.
Consider `CC(C[N+](C)(C)C)OC(N)=O` (centres unmarked) [bethanechol], for which the mucin secretion entry in the series on mucin secretion is given as “effective to stimulate mucin secretion”.
As to `C[N+](C)(C)CCOC(N)=O` [carbachol], the mucin secretion entry in the series with mucin secretion is on record as “effective to stimulate mucin secretion”.
Consider `CC(C)C[C@H](NC(=O)C(CS)Cc1ccccc1)C(=O)O` (some centres unmarked) [leucine-thiorphan], for which the mucin release result in the series with mucin release is “stimulate mucin release”.
Consider `CC(=O)OC(C)C[N+](C)(C)C` (centres unmarked) [methacholine], for which the mucin secretion entry in the series on mucin secretion is given as “effective to stimulate mucin secretion”.
With `FC(F)(F)C(F)(F)C(F)(F)C(F)(F)C(F)(F)C(F)(F)C(F)(F)C(F)(F)Br` [perflubron, perfluorooctyl bromide], the mucin secretion entry in the series with ferret trachea is given as “stimulates mucin secretion”.
On to `CC(C)C[C@H](NP(=O)(O)O[C@@H]1O[C@@H](C)[C@H](O)[C@@H](O)[C@H]1O)C(=O)N[C@@H](Cc1c[nH]c2ccccc12)C(=O)O` [phosphoramidon], for which the mucin release entry in the series with mucin release is “stimulate mucin release”.
Turning to “Epidermal growth factor: Epidermal growth factor, EGF, which can be obtained from Sigma (NSDSECPLSHDGYCLHDGVCMYIEALDKYACNCVVGYIGERCQYRDLKWWELR; Epidermal growth factor; UniProt P01133 971-1023, looked up)”, in the series with mucin production, the mucin production result is “effective to stimulate mucin production”.
For the compound Interleukin 1, in the series on mucus secretion, the mucus secretagogue activity entry was “mucus secretagogue”.
For Tumor necrosis factor alpha, the MUC5AC release entry in [4] is “stimulate MUC5AC release”.
